Experimental data: paper PMC7506137, “Selective Phosphodiesterase 1 Inhibitor BTTQ Reduces Blood Pressure in Spontaneously Hypertensive and Dahl Salt Sensitive Rats: Role of Peripheral Vasodilation” (Frontiers in Physiology, 2020)
pIC50: −log10 of the molar value.

Assays:
PDE1 = experiment: Calculated target engagement from unbound drug concentration; format: in vivo, Rat; conditions: for % TE: 1 h, hill slope 1
Rat PDE1B = molecular target: T1, Rat PDE1B (Rattus norvegicus, UniProt Q01066); experiment: PDE scintillation proximity enzyme assay; format: biochemical
T1 construct: made in house; host or cells: baculovirus-infected insect cells
T1 sequence (Q01066 1-535): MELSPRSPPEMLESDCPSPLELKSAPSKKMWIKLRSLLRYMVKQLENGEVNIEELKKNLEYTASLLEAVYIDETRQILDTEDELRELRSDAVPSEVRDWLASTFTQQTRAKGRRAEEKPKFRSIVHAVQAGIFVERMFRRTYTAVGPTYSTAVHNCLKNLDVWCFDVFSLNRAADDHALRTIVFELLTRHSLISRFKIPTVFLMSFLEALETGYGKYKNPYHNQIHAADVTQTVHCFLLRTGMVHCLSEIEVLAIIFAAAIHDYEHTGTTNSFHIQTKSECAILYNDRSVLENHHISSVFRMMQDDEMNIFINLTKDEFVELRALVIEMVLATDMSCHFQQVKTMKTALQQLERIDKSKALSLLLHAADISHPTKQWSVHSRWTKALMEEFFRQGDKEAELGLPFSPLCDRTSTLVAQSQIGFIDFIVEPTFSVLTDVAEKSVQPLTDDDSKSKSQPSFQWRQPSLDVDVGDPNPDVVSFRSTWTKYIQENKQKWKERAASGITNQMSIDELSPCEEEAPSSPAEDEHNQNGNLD
Description: All PDE enzyme activities were measured with a yittrium silicate based scintillation proximity assay that detects radioactive nucleotide monophosphates but not cyclic monophosphates. Assays are conducted in a total volume of 50 μl in 384 well plates (3706, Corning): comprised of 24 μl enzyme, 1 μl compound, and 25 μl of cyclic nucleotide. The general assay buffer consists of 50 mM Tris-HCl (pH 7.5) and 0.1% (w/v) bovine serum albumin (Fatty Acid Free, Sigma-Aldrich). Enzyme concentrations, substrate concentrations, and various PDE-specific buffer additives are described in Supplementary Table 1. Compounds to be tested are diluted in pure dimethyl sulfoxide (DMSO) using 10-point concentration-response curves, and 1 μl is acoustically dispensed into assay plates using the Echo555 (LabCyte). Maximal compound concentration in the reaction mixture is either 10 or 100 μM. Compounds at the appropriate concentration are pre-incubated with either of the PDE enzymes for 30 min before the reaction is started by the addition of substrate ([8-^3H]-cAMP, 20.7 Ci/mmol or [8-^3H]-cGMP; 6.5 Ci/mmol, Perkin Elmer). Reactions are allowed to proceed for 60 min at room temperature before quenching. Next, reactions are stopped by the addition of 400 μg/per well SPA beads (RPNQ0150, Perkin Elmer) and a potent non-selective PDE inhibitor to quench the reaction. Bead bound radioactivity (product) is quantified 12 h later a Microbeta counter (Perkin Elmer). Data is normalized to % inhibition using standard methods ([Campbell et al., 2004]), and IC50 values were plotted using PRISM (GraphPad Software) using the 4 parameter logistic equation ([Campbell et al., 2004]). Data for potency values are expressed as the geometric mean and arithmetic standard deviation.

[1] = tested on: mesenteric arteries from Dahl SS rats; experiment: Myography in isolated mesenteric arteries; parameters: species or system Rat
Description: For studies of the mesenteric arteries, rats were anesthetized using 5% isoflurane gas followed by euthanasia by secondary method. Small mesenteric arteries (∼300-μm internal diameter, 350-μm external diameter) supplying the small intestine were carefully excised under a dissecting microscope (Leica; Buffalo, NY, United States) and immersed in a cold physiological salt solution having the following ionic composition (in mM): NaCl (119.0), KCl (4.7), CaCl2 (1.6), NaH2PO4 (1.18), MgSO4 (1.17), NaHCO3 (24.0), D-glucose (5.5), and EDTA (0.03). The arteries were cannulated at the proximal and distal ends using glass micropipettes. The vessels were equilibrated with a 21% O2, 5% CO2, 74% N2 gas mixture at 37°C in the physiological salt solution for 30 min. The intraluminal pressure was maintained at 80 mmHg to approximate in vivo conditions, and the internal diameter of the artery was measured using television microscopy. Responses to vasodilator stimuli (different BTTQ concentrations) were determined in arteries precontracted with 10 μM phenylephrine (PE) and expressed as % increase from basal (PE-precontracted) diameter. Responses of the mesenteric arteries to the endothelium-dependent vasodilator agonist acetylcholine (ACh) were evaluated in SS rats fed a high salt diet (4% NaCl) for 3 weeks and treated with BTTQ (3 mg/kg) p.o. gavage twice daily or vehicle.

For `O=c1c2nnc(C3(C4CC4)CC3)n2c2c(n1CC1CC1)CCCC2` [BTTQ, 1-[1,1′-bi(cyclopropyl)-1-yl]-5-(cyclopropylmethyl)-6,7,8,9-tetrahydro[1,2,4]triazolo[4,3-A]quinoxaline-4(5H)-one], the pIC50 (PDE1; IC50 used for the target engagement calculation) was 8.86, the “% TE” value (PDE1; dose 0.1 (mg/kg oral)) was 88.55% and the “% TE” value (PDE1; dose 0.3 (mg/kg oral)) was 95.29%. For the same compound, the “% TE” value (PDE1; dose 1 (mg/kg oral)) was 98.54%, the “% TE” value (PDE1; dose 3 (mg/kg oral)) was 99.31% and the pIC50 (Rat PDE1B) was 9.00. The “relaxation, % of the initial fully relaxed diameter” value ([1]; 1 mM, arteries pre-constricted with 10 μM phenylephrine) was “about 92%”, the “acetylcholine-induced vasorelaxation, treated vs vehicle group” value ([1]; arteries from Dahl SS rats treated by oral gavage (3 mg/kg twice daily), high salt diet 21 days) was “no significant difference” and the “relaxation of mesenteric arteries compared to the vehicle” value ([1]; escalating concentrations, pre-constricted with 10 μM phenylephrine) was “concentration-dependent relaxation”.
